# Laboratory results published in ChEMBL document CHEMBL4000244, “Probing A-form DNA: A fluorescent aminosugar probe and dual recognition by anthraquinone-neomycin conjugates” (Bioorg Med Chem, 2017).
# Experiments:
# [1] = Binding affinity to 5'-CGGGGCGC-3' DNA hairpin assessed as change in fluorescence intensity at 1 uM after 45 mins by fluorescence quenching analysis relative to control
# [2] = Binding affinity to 5'-CGCGGCCG-3' DNA hairpin assessed as change in fluorescence intensity at 1 uM after 45 mins by fluorescence quenching analysis relative to control
# [3] = Binding affinity to 5'-CGCCCCCG-3' DNA hairpin assessed as change in fluorescence intensity at 1 uM after 45 mins by fluorescence quenching analysis relative to control
# [4] = Binding affinity to 5'-GCGCGGGG-3' DNA hairpin assessed as change in fluorescence intensity at 1 uM after 45 mins by fluorescence quenching analysis relative to control
# [5] = Binding affinity to 5'-GGGGCCGG-3' DNA hairpin assessed as change in fluorescence intensity at 1 uM after 45 mins by fluorescence quenching analysis relative to control
# [6] = Binding affinity to 5'-GCCGGGCC-3' DNA hairpin assessed as change in fluorescence intensity at 1 uM after 45 mins by fluorescence quenching analysis relative to control
# [7] = Binding affinity to 5'-GGGCCCGG-3' DNA hairpin assessed as change in fluorescence intensity at 1 uM after 45 mins by fluorescence quenching analysis relative to control
# [8] = Binding affinity to 5'-GCGGGCGC-3' DNA hairpin assessed as change in fluorescence intensity at 1 uM after 45 mins by fluorescence quenching analysis relative to control
# [9] = Binding affinity to 5'-GGGCCCGC-3' DNA hairpin assessed as change in fluorescence intensity at 1 uM after 45 mins by fluorescence quenching analysis relative to control
# [10] = Binding affinity to 5'-GCGGGGCC-3' DNA hairpin assessed as change in fluorescence intensity at 1 uM after 45 mins by fluorescence quenching analysis relative to control
# [11] = Binding affinity to 5'-GCCGGCCC-3' DNA hairpin assessed as change in fluorescence intensity at 1 uM after 45 mins by fluorescence quenching analysis relative to control
# [12] = Binding affinity to 5'-CCGGGGGG-3' DNA hairpin assessed as change in fluorescence intensity at 1 uM after 45 mins by fluorescence quenching analysis relative to control
# [13] = Binding affinity to 5'-GGGGCCGC-3' DNA hairpin assessed as change in fluorescence intensity at 1 uM after 45 mins by fluorescence quenching analysis relative to control
# [14] = Binding affinity to 5'-GGCGGCCC-3' DNA hairpin assessed as change in fluorescence intensity at 1 uM after 45 mins by fluorescence quenching analysis relative to control
# [15] = Binding affinity to 5'-GGGGCCCC-3' DNA hairpin assessed as change in fluorescence intensity at 1 uM after 45 mins by fluorescence quenching analysis relative to control
# [16] = Binding affinity to 5'-CCGGCGCG-3' DNA hairpin assessed as change in fluorescence intensity at 1 uM after 45 mins by fluorescence quenching analysis relative to control
# [17] = Binding affinity to 5'-GGGCCGCC-3' DNA hairpin assessed as change in fluorescence intensity at 1 uM after 45 mins by fluorescence quenching analysis relative to control
# [18] = Binding affinity to 5'-GCCGCGGG-3' DNA hairpin assessed as change in fluorescence intensity at 1 uM after 45 mins by fluorescence quenching analysis relative to control
# [19] = Binding affinity to 5'-CGGCGGGG-3' DNA hairpin assessed as change in fluorescence intensity at 1 uM after 45 mins by fluorescence quenching analysis relative to control
# [20] = Binding affinity to 5'-CCCGGGGG-3' DNA hairpin assessed as change in fluorescence intensity at 1 uM after 45 mins by fluorescence quenching analysis relative to control
# [21] = Binding affinity to 5'-GCGGGGGC-3' DNA hairpin assessed as change in fluorescence intensity at 1 uM after 45 mins by fluorescence quenching analysis relative to control
# [22] = Binding affinity to 5'-GCCGGGGG-3' DNA hairpin assessed as change in fluorescence intensity at 1 uM after 45 mins by fluorescence quenching analysis relative to control
# [23] = Binding affinity to 5'-CGGGCCGG-3' DNA hairpin assessed as change in fluorescence intensity at 1 uM after 45 mins by fluorescence quenching analysis relative to control
# [24] = Binding affinity to 5'-CGGGGGGC-3' DNA hairpin assessed as change in fluorescence intensity at 1 uM after 45 mins by fluorescence quenching analysis relative to control
# [25] = Binding affinity to 5'-GCGGCCCC-3' DNA hairpin assessed as change in fluorescence intensity at 1 uM after 45 mins by fluorescence quenching analysis relative to control
# [26] = Binding affinity to 5'-GGCGGCGC-3' DNA hairpin assessed as change in fluorescence intensity at 1 uM after 45 mins by fluorescence quenching analysis relative to control
# [27] = Binding affinity to 5'-CGGCCGGC-3' DNA hairpin assessed as change in fluorescence intensity at 1 uM after 45 mins by fluorescence quenching analysis relative to control
# [28] = Binding affinity to 5'-CCCCGGCC-3' DNA hairpin assessed as change in fluorescence intensity at 1 uM after 45 mins by fluorescence quenching analysis relative to control
# [29] = Binding affinity to 5'-GCCCGGCC-3' DNA hairpin assessed as change in fluorescence intensity at 1 uM after 45 mins by fluorescence quenching analysis relative to control
# [30] = Binding affinity to 5'-CGCCGGCG-3' DNA hairpin assessed as change in fluorescence intensity at 1 uM after 45 mins by fluorescence quenching analysis relative to control
# [31] = Binding affinity to 5'-GCGGGCCC-3' DNA hairpin assessed as change in fluorescence intensity at 1 uM after 45 mins by fluorescence quenching analysis relative to control
# [32] = Binding affinity to 5'-GGGCGGGG-3' DNA hairpin assessed as change in fluorescence intensity at 1 uM after 45 mins by fluorescence quenching analysis relative to control
# [33] = Binding affinity to 5'-GCCGCCCC-3' DNA hairpin assessed as change in fluorescence intensity at 1 uM after 45 mins by fluorescence quenching analysis relative to control
# [34] = Binding affinity to 5'-CGCGGGCC-3' DNA hairpin assessed as change in fluorescence intensity at 1 uM after 45 mins by fluorescence quenching analysis relative to control
# [35] = Binding affinity to 5'-CCGCGCGG-3' DNA hairpin assessed as change in fluorescence intensity at 1 uM after 45 mins by fluorescence quenching analysis relative to control
# [36] = Binding affinity to 5'-CCGGCGGC-3' DNA hairpin assessed as change in fluorescence intensity at 1 uM after 45 mins by fluorescence quenching analysis relative to control
structure (smiles),measurement,setting,value
NCC1O[C@H](O[C@H]2[C@@H](O)[C@H](O[C@@H]3[C@@H](O)[C@H](N)C[C@H](N)[C@H]3O[C@H]3O[C@H](CN)[C@@H](O)[C@H](O)[C@H]3N)O[C@@H]2CSCCNC(=O)CCSCC(=O)Nc2ccc(-c3c4ccc(=O)cc-4oc4cc(O)ccc34)c(C(=O)O)c2)[C@H](N)[C@@H](O)[C@@H]1O (stereo partly specified),Activity,[1],49%
same,Activity,[2],42%
same,Activity,[3],31.8%
same,Activity,[4],43.1%
same,Activity,[5],28.3%
same,Activity,[6],51%
same,Activity,[7],25.4%
same,Activity,[8],53.7%
same,Activity,[9],30.6%
same,Activity,[10],40.4%
same,Activity,[11],37.6%
same,Activity,[12],45.1%
same,Activity,[13],41.3%
same,Activity,[14],41.2%
same,Activity,[15],15%
same,Activity,[16],45.4%
same,Activity,[17],40%
same,Activity,[18],52.7%
same,Activity,[19],50.8%
same,Activity,[20],38.7%
same,Activity,[21],36.9%
same,Activity,[22],42.5%
same,Activity,[23],48.2%
same,Activity,[24],32.2%
same,Activity,[25],37.2%
same,Activity,[26],50.6%
same,Activity,[27],44.9%
same,Activity,[28],37.6%
same,Activity,[29],36.2%
same,Activity,[30],50.8%
same,Activity,[31],47.8%
same,Activity,[32],45.3%
same,Activity,[33],48.5%
same,Activity,[34],44.3%
same,Activity,[35],47.2%
same,Activity,[36],47.4%
